This is an account of results in US11666589B2, “Pivarubicin and benzarubicin compositions” (Paradox Pharmaceuticals, Inc., priority 2020, dated 2023).

Data set [1] can be described thus: Cardiotoxicity assessment (Bertazzoli Test), non-tumor-bearing mice. The format is in vivo, female NSG mice. Conditions: for hearts with Severity 0 / hearts with Severity 0.5 / hearts with Severity 1.0 / hearts with Total Score 0 / hearts with Total Score 0.5 / hearts with Total Score 1.0: Non-Tumor-Bearing; for hearts with Severity 0 / hearts with Severity 0.5 / hearts with Severity 1.0: 3 i.p. doses at 2-week intervals; for hearts with Total Score 0 / hearts with Total Score 0.5 / hearts with Total Score 1.0: severity×extension. As to the method:
(§1) Drug-mediated cardiotoxicity was assessed in both non-tumor-bearing female NSG mice administered three doses (i.p. every two weeks) of the MTD of doxorubicin, pivarubicin or the equivalent volume of solvent only and in hearts excised from tumor-bearing mice treated as described in Results section. Body weights were monitored every three days. Two weeks after final dose, mice were sacrificed, and hearts were excised immediately. Intact ventricular myocardia were fixed for a minimum of 24 h in 10% formalin phosphate buffered to pH 7.0 and then carefully sectioned into 2 to 3-mm thick slices before being dehydrated in graded ethanol and cleared in xylene prior to embedding in paraffin at 58° C. Sections (4-μm thick) were mounted on glass slides, deparaffinized in xylene, and stained in the routine fashion with Mayer's hematoxylin and eosin. Slide labels were blinded to evaluator. Myocardial lesions were evaluated by routine light microscopy and scored with regard to the severity and extent of damage:
(§2) Degree of severity (S)—0, no evidence of histological changes; 1, sarcoplasmic microvacuolization and/or inclusions (interstitial or cellular edema); 2, as in 1 plus sarcoplasmic macrovacuolization or atrophia, necrosis, fibrosis, endocardial lesions, and thrombi.
(§3) Degree of extension (E)—0, no lesions; 0.5, less than 10 single altered myocytes on the whole-heart section; 1, scattered single altered myocytes; 2, scattered small groups of altered myocytes; 3, spread small groups of altered myocytes; 4, confluent groups of altered myocytes; 5, most of cells damaged.
(§4) Total cardiotoxicity score/animal=S×E and mean total score (MTS) for each treatment group was MTS=(S×E)/number of animals.
(§5) Given the limitation of doxorubicin in the treatment of tumors due to irreversible cardiotoxicity due to the total cumulative dose of drug, it was next determined whether pivarubicin produced evidence of cardiotoxic damage at the total dose of drug administered to NSG mice that produced tumor growth inhibition. Histological evidence of ventricular damage in hearts of drug- or vehicle-treated NSG mice were assessed using the Bertazzoli Test, originally designed to assess doxorubicin-induced cardiomyocyte damage. Analyses were performed on hearts from two independent experiments: 1) hearts that were excised at dosing endpoint from tumor-bearing NSG mice receiving 2 i.p. doses of pivarubicin at 16.5 mg/kg, doxorubicin at 1.4 mg/kg then 1.6 mg/kg and an equivalent volume of vehicle alone and 2) non-tumor-bearing female NSG mice receiving 3 i.p. doses of pivarubicin at 16.5 mg/kg, doxorubicin at 1.4 mg/kg then 1.6 mg/kg×2 and an equivalent volume of vehicle alone at 2-week intervals.
(§6) Non-tumor-bearing female NSG mice at 9 weeks old were treated with either 16.5 mg/kg pivarubicin (PIV), 1.4 mg/kg (1×) and 1.6 mg/kg (2×) doxorubicin and equivalent volumes of vehicle i.p. at 2-week intervals. Tumor-bearing female NSG mouse treatment was as described for the “Cardiotoxicity Assessment method” method. At endpoint, hearts were excised and prepared for histological analysis as described above. Severity and severity×extension (total score) are defined in Materials and Methods.

The nature of data set [2]: Cardiotoxicity assessment (Bertazzoli Test), tumor-bearing mice. The format is in vivo, female NSG mice. Conditions: for hearts with Severity 0 / hearts with Severity 0.5 / hearts with Severity 1.0: 2 i.p. doses; for hearts with Total Score 0 / hearts with Total Score 0.5 / hearts with Total Score 1.0: severity×extension. As to the method:
as §1, §2, §3, §4, §5, §6

The subject of data set [3] is MDA-MB-231 cells. In words: Secondary tumorsphere formation. The format is cell-based, human. The conditions noted are these: 2.5 μM, up to 7 days. On the procedure:
either vehicle, pivarubicin (NV), or doxorubicin (DOX), and cultured for up to 7 days prior to obtaining the digital images shown in FIG. 6C (vehicle only), FIG. 6D (2.5 uM PIV), and FIG. 6E (2.5 uM DOX). The bar graph in FIG. 6F represents the mean number of tumorspheres greater than […] in diameter/well (n>3).

The subject of data set [4] is 32D.3 cells. Put plainly: Cell viability by trypan blue with or without rottlerin. As to the method:
Rottlerin treatment of cells, cell viability analysis by MTT [28] and immunoblot identification of protein expression were performed and described previously.
FIGS. 4A-4D are charts and images from studies of pivarubicin cytotoxicity mediated through PKC-delta (PKCd) activation. For FIG. 4A, 32D.3 cells, suspended in RPMI-1640 medium/10% FCS/IL-3 at a density of 5×10^5 cells/ml, were treated with either DMSO (C) or 5 μM pivarubicin (PIV) for 4 h prior to harvesting, cell fractionation, and immunoblot analysis of PKCd as described previously. For FIG. 4B, 32D.3 cells were pretreated with 10 μM rottlerin for 2 h prior to exposure to 5 μM drug for 1 h at 37° C. Cells were pelleted and washed twice in large volumes of warm PBS, then resuspended in fresh, drug-free medium containing 10 μM rottlerin at 5×10^5 cells/ml and incubated at 37° C. for up to 72 h. At indicated times, aliquots of cells were withdrawn and stained with trypan blue. Viable cells were scored based on the exclusion of stain and gross morphological appearance. For the results shown in FIGS. 4C and 4D, 32D.3 cells were transfected with PKCd siRNA or scrambled siRNA as described in the Materials and Methods section under “Chemicals and Biologicals”. The cells were then assessed for pivarubicin cytotoxicity as for FIG. 4A. Each datum point represents the mean and standard error of at least three independent determinations, each consisting of 300-500 cells per count, when possible.

Data set [5] in a line: Maximum tolerated dose in non-tumor-bearing mice. The format is in vivo, female NSG mice. On the procedure:
The MTD for pivarubicin was 26.6 mg/kg, producing a reversible mean 20% weight loss after two doses, with a third dose producing an irreversible mean weight loss >20%.

The mark [6] stands for this setting: without rottlerin, doxorubicin at IC50 concentration.

Where only a bound is given, the exact number is not on record here.

As to `COc1cccc2c1C(=O)c1c(O)c3c(c(O)c1C2=O)C[C@@](O)(C(=O)CO)C[C@@H]3O[C@H]1C[C@H](N)[C@H](O)[C@H](C)O1` [Doxorubicin, reference compound], in data set [1], the “hearts with Severity 0” value was 5/9, the “hearts with Severity 0.5” value is listed as 0/9, the “hearts with Severity 1.0” value is listed as 4/9 and the “hearts with Total Score 0” value is recorded as 7/9. Besides, in data set [1], the “hearts with Total Score 0.5” value is 2/9 and the “hearts with Total Score 1.0” value was 0/9. Further, in data set [2], the “hearts with Severity 0” value is on record as 7/9, the “hearts with Severity 0.5” value is 0/9, the “hearts with Severity 1.0” value is listed as 2/9 and the “hearts with Total Score 0” value is on record as 8/9. In data set [2], the “hearts with Total Score 0.5” value is 1/9 and the “hearts with Total Score 1.0” value was 0/9. Further, the “inhibition of secondary tumorsphere formation” value in data set [3] is reported as “partial inhibition”. Moreover, in data set [4] (10 μM rottlerin), the “effect of rottlerin co-treatment on cytotoxicity” value is recorded as “does not alter”. In addition, in data set [4] (setting [6]), the “time to 50% cell kill” value stood at 24 h. Further, in data set [5] (1.4 mg/kg after 3 prior escalating doses), the “reversible mean weight loss” value is on record as 22%. In data set [5] (1.8 mg/kg, independent dosing experiment), the “irreversible mean weight loss” value is greater than 25%. Moreover, in data set [5] (i.p. once every 2 weeks), the MTD (in general, the highest dose tested that stayed within the study's limit of toxicity) stood at 1.4 mg/kg.

In the case of `COc1cccc2c1C(=O)c1c(O)c3c(c(O)c1C2=O)C[C@@](O)(C(=O)COC(=O)C(C)(C)C)C[C@@H]3O[C@H]1C[C@H](NCc2ccccc2)[C@H](O)[C@H](C)O1` [Pivarubicin, N-Benzyladriamycin-14-pivalate], in data set [1], the “hearts with Severity 0” value is on record as 9/9, the “hearts with Severity 0.5” value was 0/9, the “hearts with Severity 1.0” value is 0/9 and the “hearts with Total Score 0” value is reported as 9/9. In data set [1], the “hearts with Total Score 0.5” value is reported as 0/9 and the “hearts with Total Score 1.0” value is 0/9. In addition, the “histologic damage to ventricular cardiomyocytes” value in data set [1] (non-tumor-bearing mice (n=9), cumulative tumor growth inhibitory dose) is given as “no evidence of histologic damage”. Further, in data set [2], the “hearts with Severity 0” value is 9/10, the “hearts with Severity 0.5” value is 0/10, the “hearts with Severity 1.0” value is 1/10 and the “hearts with Total Score 0” value is on record as 9/10. Besides, in data set [2], the “hearts with Total Score 0.5” value is 0/10 and the “hearts with Total Score 1.0” value is given as 1/10. Further, the “inhibition of secondary tumorsphere formation” value in data set [3] was “complete inhibition”. In addition, the “time to 50% cell kill” value in data set [4] (co-treatment with 10 μM rottlerin) is 24 h. Besides, the “time to 50% cell kill” value in data set [4] (setting [6]) is no more than 6 h. For the same compound, the “reversible mean weight loss” value in data set [5] (26.6 mg/kg, after two doses) stood at 20%. For the same compound, the “irreversible mean weight loss” value in data set [5] (26.6 mg/kg, third dose) is on record as greater than 20%.
